The results in this text go back to patent US12410179B2, “Modulators of TNF alpha activity and uses thereof” (RayThera, Inc., priority 2023, dated 2025).

SMILES strings stand for the structures.

As usually defined, the IC50 is the concentration that gives 50% inhibition. In general, Emax refers to the maximal effect, on the per cent scale that the assay sets.

The target in one assay is TNFα (Homo sapiens, UniProt P01375). Description: HEK-Blue hTNFα reporter assay. The class given is cell-based. The arrangement: purchased R&D biosystem (R&D Systems) 210-TA-020/CF. The note with it: HEK-Blue hTNFα reporter cells, SEAP readout; read-out: IC50 Range. The source says: Stimulation of HEK293 cells by TNFα leads to activation of the NF-κB pathway. The potency of compounds was examined in HEK-Blue™ hTNFα reporter cells (Invivogen, Cat #hkb-tnfdmyd). HEK-Blue™ TNFα cells were generated by stable transfection of HEK293 cell line with a SEAP reporter gene under the control of the […] minimal promoter fused to NF-κB binding sites. Stimulation of HEK-Blue™ TNFα cells with TNFα triggers the activation of the NF-κB-inducible promoter and the production of SEAP. Levels of SEAP in the supernatant can be easily determined using QUANTI-Blue™ Solution (Invivogen, cat #rep-qbs) by reading the OD at 620-655 nm.
Chain of TNFα (P01375 77-233 limits assumed): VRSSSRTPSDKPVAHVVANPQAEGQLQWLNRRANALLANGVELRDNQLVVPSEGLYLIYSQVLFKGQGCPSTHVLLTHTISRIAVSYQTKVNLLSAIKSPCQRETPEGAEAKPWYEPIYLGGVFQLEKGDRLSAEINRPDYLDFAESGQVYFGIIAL
HEK-Blue™ TNFα cells were cultured in DMEM supplemented with 10% FBS, 100p/mL penicillin, 100 μg/mL streptomycin, 100 μg/mL normocin, 1 μg/mL puromycin, and 100 μg/mL zeocin. The culture was maintained in culture incubator with 5% CO2 at 37° C. When used for assay, the cells were gently rinsed twice with pre-warmed phosphate buffered saline (PBS) and detached in presence of PBS by tapping the flask or by using a cell scraper. The cells were spun to remove PBS and resuspended in fresh, pre-warmed test medium (DMEM supplemented with 10% FBS, 100p/mL penicillin, and 100 μg/mL streptomycin). A serial dilution of work solution of tested compound was made in DMSO with 1000× of final concentration, and 40 nL of compound DMSO solution was transferred into 384-well plates (Corning 3764) by Echo, and incubated with 10 μL of recombinant hTNFα (R&D biosystem, Cat #210-TA-020/CF) for 1 h at 37° C. The compound/hTNFα mixture well received 30 μL HEK-Blue™ TNFα cell suspension at 10000 cells/well, and then incubated at 37° C. with 5% CO2 for 24 h. The final concentration of hTNFα is […]. After incubation, 5 μL of induced cell supernatant was transferred to a new 384-well plate well (Coring 3764) to mix with 45 μL of QUANTI-Blue Solution. After 1 h incubation at 37° C., the plate was read using a spectrophotometer at 620 nm.
The percentage of inhibition was calculated by the following formula: % inhibition=(positive control−Sample)/(positive control−negative control)*100 • Positive control: OD620 reading of cells with hTNFα stimulation. • Negative control: OD620 reading of cells without hTNFα stimulation. • Sample: OD620 reading of cells with compound at specific concentration and hTNFα stimulation
The % inhibition was plotted against compound concentration in logarithmic scale and the IC50 was rendered using 4-parameter nonlinear regression (GraphPad Prism).
(In general: A reporter such as luciferase makes a cellular process visible.)
Consider `CN1C(=O)c2cccc(OC(F)F)c2[C@H]2C[C@@H]1c1nn3ccc(-c4ccc(P(C)(C)=O)nc4)nc3c12` [Example 13, (7R,14S)-1-(difluoromethoxy)-12-(6-(dimethylphosphoryl)pyridin-3-yl)-6-methyl-6,7-dihydro-7,14-methanobenzo[c]pyrimido[1′,2′:1,5]pyrazolo[4,3-f]azocin-5 (14H)-one], for which the half-inhibitory concentration (IC50) was under 25 nM.
Consider `CN1C(=O)c2cccc(OC(F)F)c2C2CC1c1nn3ccc(-c4cnc(C5(N)CCC5)nc4)cc3c12` (stereo not drawn) [Example 14, 12-(2-(1-aminocyclobutyl)pyrimidin-5-yl)-1-(difluoromethoxy)-6-methyl-6,7-dihydro-7,14-methanobenzo[c]pyrido[1′,2′:1,5]pyrazolo[4,3-f]azocin-5 (14H)-one], for which the concentration for half-maximal inhibition (IC50) was under 25 nM.
On the same count and under the same terms, with `CN1C(=O)c2cccc(OC(F)F)c2[C@H]2C[C@@H]1c1nn3ccc(-c4cnc([C@]5(O)C[C@@](C)(O)C5)nc4)nc3c12` [Example 16] the figure was under 25 nM; with `CN1C(=O)c2cccc(OC(F)F)c2[C@H]2C[C@@H]1c1nn3ccc(-c4cnc(C5(N)CC5)nc4)cc3c12` [Example 17], under 25 nM; with `CN1C(=O)c2cccc(OC(F)F)c2[C@H]2C[C@@H]1c1nn3ccc(-c4cnc([C@]5(O)C[C@@](C)(C#N)C5)nc4)cc3c12` [Example 18], under 25 nM.
Same read-out and setting: the result for `CN1C(=O)c2cccc(OC(F)F)c2[C@H]2C[C@@H]1c1nn3ccc(-c4cnc(C(C)(C)O)nc4)cc3c12` [Example 19] reads under 25 nM; that for `CN1C(=O)c2cccc(OC(F)F)c2[C@H]2C[C@@H]1c1nn3ccc(-c4cnc(P(C)(C)=O)c(F)c4)cc3c12` [Example 21], under 25 nM.
For the compound `CN1C(=O)c2cccc(OC(F)F)c2[C@H]2C[C@@H]1c1nn3cc(F)c(-c4cnc(C5(N)CCC5)nc4)nc3c12` [Example 23], the half-maximal inhibitory concentration (IC50) was under 25 nM.
The same measure, in the same setting: with `CN1C(=O)c2cccc(OC(F)F)c2[C@H]2C[C@@H]1c1nn3ccc(-c4cnc([C@]5(O)C[C@@](C)(O)C5)nc4)cc3c12` [Example 24] the figure was under 25 nM; with `CN1C(=O)c2cccc(OC(F)F)c2[C@H]2C[C@@H]1c1nn3cc(F)c(-c4ccc(P(C)(C)=O)nc4)nc3c12` [Example 25], under 25 nM; with `CN1C(=O)c2cccc(OC(F)F)c2[C@H]2C[C@@H]1c1nn3cc(F)c(-c4cnc([C@]5(O)C[C@@](C)(O)C5)nc4)nc3c12` [Example 26], under 25 nM.
Same read-out and setting: with `CN1C(=O)c2cccc(OC(F)F)c2[C@H]2C[C@@H]1c1nn3cc(F)c(-c4cnc([C@]5(N)C[C@@](C)(O)C5)nc4)nc3c12` [Example 27] the figure was under 25 nM; with `CN1C(=O)c2cccc(OC(F)F)c2[C@H]2C[C@@H]1c1nn3ccc(-c4cnc([C@]5(N)C[C@@](C)(O)C5)nc4)cc3c12` [Example 28], under 25 nM; with `CN1C(=O)c2cccc(OC(F)F)c2[C@H]2C[C@@H]1c1nn3cc(F)c(-c4ccc(P(C)(C)=O)nc4)cc3c12` [Example 29], under 25 nM.
The same measure, in the same setting: the result for `CN1C(=O)c2cccc(OC(F)F)c2[C@H]2C[C@@H]1c1nn3cnc(-c4ccc(P(C)(C)=O)nc4)cc3c12` [Example 30] reads under 25 nM; that for `[2H]C([2H])([2H])N1C(=O)c2cccc(OC(F)F)c2[C@H]2C[C@@H]1c1nn3ccc(-c4ccc(P(C)(C)=O)nc4)cc3c12` [Example 31], under 25 nM.
On to `CN1C(=O)c2cccc(OC(F)F)c2[C@H]2C[C@@H]1c1nn3cnc(-c4cnc([C@]5(O)C[C@@](C)(O)C5)nc4)cc3c12` [Example 32], for which the half-inhibitory concentration (IC50) is under 25 nM.
Still for that read-out and setting: with `[2H]C([2H])([2H])N1C(=O)c2cccc(OC(F)F)c2[C@H]2C[C@@H]1c1nn3ccc(-c4cnc([C@]5(O)C[C@@](C)(O)C5)nc4)cc3c12` [Example 33] the figure was under 25 nM; with `CN1C(=O)c2ccc(F)c(OC(F)F)c2[C@H]2C[C@@H]1c1nn3ccc(-c4ccc(P(C)(C)=O)nc4)cc3c12` [Example 34], under 25 nM; with `CN1C(=O)c2cc(F)cc(OC(F)F)c2[C@H]2C[C@@H]1c1nn3ccc(-c4ccc(P(C)(C)=O)nc4)cc3c12` [Example 35], under 25 nM.
The same measure, in the same setting: with `CN1C(=O)c2cccc(OC(F)F)c2[C@H]2C[C@@H]1c1nn3cc(F)c(-c4cnc([C@]5(N)C[C@@](C)(O)C5)nc4)cc3c12` [Example 36] the figure was under 25 nM; with `CN1C(=O)c2cccc(OC3CC3)c2[C@H]2C[C@@H]1c1nn3ccc(-c4cnc([C@]5(O)C[C@@](C)(O)C5)nc4)cc3c12` [Example 37], under 25 nM; with `C[C@]1(O)C[C@](O)(c2ncc(-c3ccn4nc5c(c4c3)[C@@H]3C[C@H]5NC(=O)c4cccc(OC(F)F)c43)cn2)C1` [Example 38], under 25 nM.
Still for that read-out and setting: the result for `CN1C(=O)c2cccc(OC(F)F)c2[C@H]2C[C@@H]1c1nn3cc(F)c(-c4cnc(P(C)(C)=O)c(F)c4)cc3c12` [Example 39] reads under 25 nM; that for `CN1C(=O)c2cccc(OC(F)F)c2[C@H]2C[C@@H]1c1nn3ccc(-c4cnc([C@]5(N)C[C@@](C)(O)C5)c(F)c4)cc3c12` [Example 40], under 25 nM; that for `CN1C(=O)c2cccc(OC(F)F)c2[C@H]2C[C@@H]1c1nn3cc(F)c(-c4cnc(C5(N)CCC5)nc4)cc3c12` [Example 41], under 25 nM.
Take `CN1C(=O)c2cccc(OC(F)F)c2[C@H]2C[C@@H]1c1nn3ccc(-c4cnc([C@]5(O)C[C@@](C)(O)C5)cn4)cc3c12` [Example 42]: the half-inhibitory concentration (IC50) was under 25 nM.
On the same count and under the same terms, the result for `CN1C(=O)c2cccc(OC(F)F)c2[C@H]2C[C@@H]1c1nn3cc(F)c(-c4cnc([C@]5(O)C[C@@](C)(O)C5)cn4)cc3c12` [Example 43] reads under 25 nM; that for `CN1C(=O)c2cccc(OC(F)F)c2[C@H]2C[C@@H]1c1nn3cnc(-c4cnc([C@]5(O)C[C@@](C)(C#N)C5)nc4)cc3c12` [Example 45], under 25 nM; that for `CN1C(=O)c2cccc(OC(F)F)c2[C@H]2C[C@@H]1c1nn3cnc(-c4cnc([C@]5(N)C[C@@](C)(O)C5)nc4)cc3c12` [Example 46], under 25 nM.
The same measure, in the same setting: the result for `CN1C(=O)c2cccc(OC(F)F)c2[C@H]2C[C@@H]1c1nn3cnc(-c4cnc([C@]5(N)C[C@@](C)(O)C5)c(F)c4)cc3c12` [Example 47] reads under 25 nM; that for `CN1C(=O)c2cccc(OC(F)F)c2[C@H]2C[C@@H]1c1nn3cnc(-c4cnc(C5(N)CCC5)nc4)cc3c12` [Example 48], under 25 nM.
The same measure, in the same setting: the result for `CN1C(=O)c2cccc(OC(F)F)c2[C@H]2C[C@@H]1c1nn3ccc(-c4cnc(C5(N)COC5)nc4)cc3c12` [Example 49] reads under 25 nM; that for `CN1C(=O)c2cccc(OC(F)F)c2[C@H]2C[C@@H]1c1nn3cc(F)c(-c4cnc([C@]5(N)C[C@@](C)(O)C5)c(F)c4)nc3c12` [Example 50], under 25 nM.
On to `CN1C(=O)c2cccc(OC(F)F)c2[C@H]2C[C@@H]1c1nn3cc(F)c(-c4cnc([C@]5(N)C[C@@](C)(C#N)C5)nc4)nc3c12` [Example 51], for which the half-maximal inhibitory concentration (IC50) was under 25 nM.
Same read-out and setting: with `[2H]C([2H])([2H])N1C(=O)c2cccc(OC(F)F)c2[C@H]2C[C@@H]1c1nn3ccc(-c4cnc(C5(N)CCC5)nc4)nc3c12` [Example 52] the figure was under 25 nM; with `CN1C(=O)c2cccc(C#N)c2[C@H]2C[C@@H]1c1nn3ccc(-c4cnc(C5(N)CCC5)nc4)cc3c12` [Example 54], under 25 nM; with `[2H]C([2H])([2H])N1C(=O)c2cccc(OC(F)F)c2[C@H]2C[C@@H]1c1nn3ccc(-c4cnc([C@]5(N)C[C@@](C)(C#N)C5)nc4)cc3c12` [Example 55], under 25 nM.
Take `[2H]C([2H])([2H])N1C(=O)c2cccc(OC(F)F)c2[C@H]2C[C@@H]1c1nn3ccc(-c4cnc([C@]5(N)C[C@@](C)(C#N)C5)nc4)nc3c12` [Example 56]: the concentration for half-maximal inhibition (IC50) is under 25 nM.
On the same count and under the same terms, with `[2H]C([2H])([2H])N1C(=O)c2cccc(OC(F)F)c2[C@H]2C[C@@H]1c1nn3cc(F)c(-c4cnc([C@]5(N)C[C@@](C)(O)C5)nc4)nc3c12` [Example 57] the figure was under 25 nM; with `C[C@]1(C#N)C[C@](N)(c2ncc(-c3cc4c5c(nn4cc3F)[C@H]3C[C@@H]5c4c(OC(F)F)cccc4C(=O)N3)cc2F)C1` [Example 58], under 25 nM.

The same assay, now with this note: HEK-Blue hTNFα reporter cells; read-out: TNFα reporter, Emax.
Turning to `CN1C(=O)c2cccc(OC(F)F)c2[C@H]2C[C@@H]1c1nn3ccc(-c4cnc([C@]5(O)C[C@@](C)(O)C5)nc4)cc3c12` [Example 24], the maximal response (Emax) was found to be 91%.
In the case of `CN1C(=O)c2cccc(OC(F)F)c2[C@H]2C[C@@H]1c1nn3cnc(-c4cnc([C@]5(N)C[C@@](C)(O)C5)c(F)c4)cc3c12` [Example 47], the Emax was 94%.

The assay is the same for the next values; noted with them: HEK-Blue hTNFα reporter cells; read-out: TNFα reporter, IC50.
`CN1C(=O)c2cccc(OC(F)F)c2[C@H]2C[C@@H]1c1nn3ccc(-c4cnc([C@]5(O)C[C@@](C)(O)C5)nc4)cc3c12` [Example 24]: the 50% inhibitory concentration (IC50) amounted to 2.3 nM.
Same read-out and setting: the result for `CN1C(=O)c2cccc(OC(F)F)c2[C@H]2C[C@@H]1c1nn3cnc(-c4cnc([C@]5(N)C[C@@](C)(O)C5)c(F)c4)cc3c12` [Example 47] reads 3.6 nM.
